Experimental data published in US12065443B2, “Compounds and pharmaceutical compositions thereof for the treatment of diseases” (priority 2017, dated 2024).
Read-outs that look alike come from different tables or passages of the source.

Columns and labels:
[1] = biological target: T1, SIK2 (Homo sapiens, UniProt Q9H0K1); test: biochemical; conditions: ADP-Glo SIK kinase assay
T1 construct: purchased ThermoFisher Scientific PV4792
Procedure, shortened: (§1)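 Enzyme–substrate mix was started with ATP and incubated 120 min at RT. ADP formed was quantified by ADP-Glo: 40 min ATP depletion, then 30 min detection reagent converting ADP to ATP for luciferase luminescence, which rises with kinase activity. Controls: 1% DMSO and 10 μM staurosporine (final).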

[2] = biological target: T2, SIK3 (Homo sapiens, UniProt Q9Y2K2); test: biochemical; conditions: ADP-Glo SIK kinase assay
T2 construct: purchased SignalChem S12-11G-100
Procedure, shortened: as §1

[3] = biological target: T3, SIK1 (Homo sapiens, UniProt P57059); test: biochemical; conditions: ADP-Glo SIK kinase assay
T3 construct: purchased Carna Biosciences 02-131
Procedure, shortened: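 Wells with 1% DMSO or 10 μM staurosporine (final) define the control window. The kinase reaction with substrate and ATP runs 120 min at RT, followed by ADP-Glo detection: ATP depletion (40 min) and ADP-derived luminescence (30 min).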

[4] = system: LPS-induced TNFα secretion in monocyte-derived macrophages (MdM); test: MdM assay: LPS-triggered TNFα (ELISA); format: cell-based, human; conditions: Homo sapiens, Macrophage, LPS-triggered TNFα inhibition
Procedure, shortened: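 Human CD14+ monocytes isolated from buffy-coat PBMCs by magnetic beads, differentiated to macrophages; on day 10 compound preincubated 1 h at 37 °C, then LPS 200 ng/mL added (0.2% DMSO). Supernatant taken after 20 h; TNFα quantified by sandwich ELISA against standard curve.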

[5] = system: LPS triggered IL-10 secretion in monocyte-derived macrophages (MdM); test: MdM assay: LPS-triggered IL-10 (ELISA); format: cell-based, human; conditions: maximal fold change vs LPS only, median across assays
Procedure, shortened: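 CD14+ monocytes isolated from human buffy-coat PBMCs and differentiated to macrophages for 10 days. Cells pre-treated with compound 1 h at 37° C (0.2% DMSO), then stimulated with 200 ng/mL LPS; IL-10 in supernatant at 2 h measured by ELISA (A450). Maximal fold change versus LPS only reported as median of two or more runs.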

[6] = biological target: T1, SIK2; test: biochemical; conditions: 33P radioactive SIK kinase assay, AMARA peptide, 10 μM ATP
Procedure, shortened: (§2)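 AMARA peptide phosphorylation by SIK1–3 is quantified through ^33P uptake from a labeled/unlabeled ATP blend. Staurosporine at 10 μM final defines full inhibition, 1% DMSO the uninhibited signal. Quench uses phosphoric acid; counting follows filter capture.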

[7] = biological target: T2, SIK3; test: biochemical
Procedure, shortened: as §2

[8] = biological target: T3, SIK1; test: biochemical; conditions: 33P radioactive SIK kinase assay, AMARA peptide, 10 μM ATP; read-out: SIK1 IC50
Procedure, shortened: as §2

T2 sequence (Q9Y2K2 whole entry): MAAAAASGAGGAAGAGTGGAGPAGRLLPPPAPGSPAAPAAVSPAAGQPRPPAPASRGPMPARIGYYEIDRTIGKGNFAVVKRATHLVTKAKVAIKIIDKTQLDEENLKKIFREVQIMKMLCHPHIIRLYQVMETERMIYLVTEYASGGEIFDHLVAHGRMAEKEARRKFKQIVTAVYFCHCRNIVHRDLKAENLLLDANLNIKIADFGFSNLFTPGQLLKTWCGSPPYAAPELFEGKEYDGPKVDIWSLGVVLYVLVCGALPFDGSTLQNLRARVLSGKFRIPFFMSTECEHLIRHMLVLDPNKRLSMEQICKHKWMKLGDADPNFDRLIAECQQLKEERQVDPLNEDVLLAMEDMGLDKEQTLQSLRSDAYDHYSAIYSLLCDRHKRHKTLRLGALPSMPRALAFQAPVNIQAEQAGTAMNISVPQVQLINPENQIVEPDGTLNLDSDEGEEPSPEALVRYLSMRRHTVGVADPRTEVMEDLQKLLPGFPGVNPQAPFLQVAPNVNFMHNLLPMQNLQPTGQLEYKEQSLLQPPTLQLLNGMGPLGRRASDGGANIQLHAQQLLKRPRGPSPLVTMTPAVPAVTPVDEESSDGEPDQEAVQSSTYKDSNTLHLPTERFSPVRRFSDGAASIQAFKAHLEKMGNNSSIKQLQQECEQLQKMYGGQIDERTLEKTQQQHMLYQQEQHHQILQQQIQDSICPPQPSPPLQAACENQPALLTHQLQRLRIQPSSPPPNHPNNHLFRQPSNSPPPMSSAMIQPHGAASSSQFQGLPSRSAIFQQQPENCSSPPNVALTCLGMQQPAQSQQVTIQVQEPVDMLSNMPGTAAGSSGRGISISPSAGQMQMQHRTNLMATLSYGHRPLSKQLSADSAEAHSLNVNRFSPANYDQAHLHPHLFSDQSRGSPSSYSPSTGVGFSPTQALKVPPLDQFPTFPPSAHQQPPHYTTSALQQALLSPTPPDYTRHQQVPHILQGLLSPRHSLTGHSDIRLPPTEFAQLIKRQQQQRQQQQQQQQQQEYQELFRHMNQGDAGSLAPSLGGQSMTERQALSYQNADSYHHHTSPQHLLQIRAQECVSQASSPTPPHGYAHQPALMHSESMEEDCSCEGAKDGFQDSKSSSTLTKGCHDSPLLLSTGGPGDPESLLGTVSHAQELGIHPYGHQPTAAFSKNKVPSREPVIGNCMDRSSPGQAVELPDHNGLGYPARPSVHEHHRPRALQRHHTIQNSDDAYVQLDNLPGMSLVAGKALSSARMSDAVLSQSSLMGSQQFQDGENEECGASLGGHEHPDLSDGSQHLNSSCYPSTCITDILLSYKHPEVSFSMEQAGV
T1 sequence (Q9H0K1 whole entry): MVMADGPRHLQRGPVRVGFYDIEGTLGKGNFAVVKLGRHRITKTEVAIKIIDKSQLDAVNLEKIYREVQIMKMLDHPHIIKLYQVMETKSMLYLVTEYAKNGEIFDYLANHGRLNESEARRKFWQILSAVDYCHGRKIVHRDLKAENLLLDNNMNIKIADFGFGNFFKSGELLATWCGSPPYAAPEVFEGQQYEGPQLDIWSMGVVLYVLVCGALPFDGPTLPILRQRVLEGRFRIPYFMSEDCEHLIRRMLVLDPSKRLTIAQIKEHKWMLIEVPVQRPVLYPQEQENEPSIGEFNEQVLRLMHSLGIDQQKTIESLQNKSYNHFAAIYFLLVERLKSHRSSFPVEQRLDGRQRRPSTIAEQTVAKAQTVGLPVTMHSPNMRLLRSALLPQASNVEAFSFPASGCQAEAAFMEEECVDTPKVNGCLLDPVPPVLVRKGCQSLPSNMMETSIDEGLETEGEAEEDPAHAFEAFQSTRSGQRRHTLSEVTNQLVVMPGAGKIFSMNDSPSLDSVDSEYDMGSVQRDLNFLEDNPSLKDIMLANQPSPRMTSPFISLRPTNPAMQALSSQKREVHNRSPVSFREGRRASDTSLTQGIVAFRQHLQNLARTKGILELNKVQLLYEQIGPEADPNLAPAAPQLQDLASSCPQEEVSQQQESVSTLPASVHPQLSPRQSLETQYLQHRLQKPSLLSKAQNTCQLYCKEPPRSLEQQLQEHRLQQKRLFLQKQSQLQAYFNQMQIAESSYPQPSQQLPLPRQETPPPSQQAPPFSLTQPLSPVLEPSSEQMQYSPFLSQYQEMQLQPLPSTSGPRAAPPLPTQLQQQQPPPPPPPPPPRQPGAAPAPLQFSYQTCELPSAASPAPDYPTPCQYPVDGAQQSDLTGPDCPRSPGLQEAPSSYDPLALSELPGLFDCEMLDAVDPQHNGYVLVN
T3 sequence (P57059 whole entry): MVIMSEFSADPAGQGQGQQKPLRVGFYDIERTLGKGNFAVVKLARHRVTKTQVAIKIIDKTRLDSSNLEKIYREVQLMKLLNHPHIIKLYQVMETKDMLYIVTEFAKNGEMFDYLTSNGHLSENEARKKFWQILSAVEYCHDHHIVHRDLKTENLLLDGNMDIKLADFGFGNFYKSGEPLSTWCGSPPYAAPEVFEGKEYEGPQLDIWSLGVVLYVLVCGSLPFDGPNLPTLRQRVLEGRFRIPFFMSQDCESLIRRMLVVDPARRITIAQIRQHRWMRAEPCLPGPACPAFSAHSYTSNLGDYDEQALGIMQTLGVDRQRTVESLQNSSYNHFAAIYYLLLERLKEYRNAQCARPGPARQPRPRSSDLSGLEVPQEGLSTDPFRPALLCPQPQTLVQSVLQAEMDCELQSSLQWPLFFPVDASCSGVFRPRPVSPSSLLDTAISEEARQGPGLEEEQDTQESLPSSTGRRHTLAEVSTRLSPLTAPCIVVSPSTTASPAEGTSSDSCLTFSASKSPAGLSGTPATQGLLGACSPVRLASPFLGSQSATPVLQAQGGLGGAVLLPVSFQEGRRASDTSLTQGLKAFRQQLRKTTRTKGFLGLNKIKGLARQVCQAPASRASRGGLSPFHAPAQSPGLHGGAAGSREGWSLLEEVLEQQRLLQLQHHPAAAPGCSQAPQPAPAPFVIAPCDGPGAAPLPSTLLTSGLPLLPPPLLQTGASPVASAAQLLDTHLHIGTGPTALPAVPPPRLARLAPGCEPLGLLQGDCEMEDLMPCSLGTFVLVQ

SMILES: CNc1cc(-c2cnc3cc(-c4cnn(C)c4)ccn23)cc(OC)c1C(=O)NCC(F)(F)F [Cpd 204]
- IC50 [1]: 0.01 to 10 nM
- IC50 [2]: 0.01 to 10 nM
- IC50 [3]: 0.01 to 10 nM
- EC50 [4]: 0.1 to 100 nM
- IL-10 FCmax median [5]: ++ (>1.5-4.5)
- IC50 [6]: 0.01 to 10 nM
- IC50 [7]: 0.01 to 10 nM
- IC50 [8]: 0.01 to 10 nM

SMILES: COc1cc(-c2cnc3cc(-c4cnn(C)c4)ccn23)cc2c1C(=O)N(CC(F)(F)F)CC2 [Cpd 225, 8-methoxy-6-[7-(1-methylpyrazol-4-yl)imidazo[1,2-a]pyridin-3-yl]-2-(2,2,2-trifluoroethyl)-3,4-dihydroisoquinolin-1-one]
- IC50 [1]: 0.01 to 10 nM
- IC50 [2]: 0.01 to 10 nM
- IC50 [3]: 0.01 to 10 nM
- EC50 [4]: 0.1 to 100 nM
- IL-10 FCmax median [5]: ++ (>1.5-4.5)
- IC50 [6]: 0.01 to 10 nM
- IC50 [7]: 0.01 to 10 nM
- IC50 [8]: 10 to 100 nM

SMILES: COc1cc(-c2cnc3cc(-c4cnn(C5CN(CCC#N)C5)c4)ccn23)cc(OC)c1C(=O)NCC(F)(F)F [Cpd 264, 4-[7-[1-[1-(2-cyanoethyl)azetidin-3-yl]pyrazol-4-yl]imidazo[1,2-a]pyridin-3-yl]-2,6-dimethoxy-N-(2,2,2-trifluoroethyl)benzamide]
- IC50 [1]: 0.01 to 10 nM
- IC50 [2]: 0.01 to 10 nM
- IC50 [3]: 0.01 to 10 nM
- EC50 [4]: 0.1 to 100 nM
- IL-10 FCmax median [5]: ++ (>1.5-4.5)

SMILES: COc1cc(-c2cnc3cc(-c4ccc(C)nn4)ccn23)cc2c1C(=O)N(CC(F)(F)F)CC2 [Cpd 275, 8-methoxy-6-[7-(6-methylpyridazin-3-yl)imidazo[1,2-a]pyridin-3-yl]-2-(2,2,2-trifluoroethyl)-3,4-dihydroisoquinolin-1-one]
- IC50 [1]: 0.01 to 10 nM
- IC50 [2]: 0.01 to 10 nM
- IC50 [3]: 10 to 100 nM
- EC50 [4]: 0.1 to 100 nM
- IL-10 FCmax median [5]: ++ (>1.5-4.5)

SMILES: CCOC(=O)C(C)Cn1cc(-c2ccn3c(-c4cc(OC)c(C(=O)NCC(F)(F)F)c(OC)c4)cnc3c2)cn1 (stereo not drawn) [Cpd 293, ethyl 3-[4-[3-[3,5-dimethoxy-4-(2,2,2-trifluoroethyl-carbamoyl)phenyl]imidazo[1,2-a]pyridin-7-yl]pyrazol-1-yl]-2-methyl-propanoate]
- IC50 [1]: 0.01 to 10 nM
- IC50 [2]: 0.01 to 10 nM
- IC50 [3]: 0.01 to 10 nM
- EC50 [4]: 0.1 to 100 nM
- IL-10 FCmax median [5]: ++ (>1.5-4.5)

SMILES: COc1cc(-c2cnc3cc(-c4cnn(C)c4)ccn23)cc(OC)c1C(=O)NCC(F)F [compound 133, N-(2,2-difluoroethyl)-2,6-dimethoxy-4-[7-(1-methylpyrazol-4-yl)imidazo[1,2-a]pyridin-3-yl]benzamide]
- IC50 [1]: 0.01 to 10 nM
- IC50 [2]: 0.01 to 10 nM
- IC50 [3]: 0.01 to 10 nM
- EC50 [4]: 0.1 to 100 nM
- IL-10 FCmax median [5]: ++ (>1.5-4.5)
- IC50 [6]: 0.01 to 10 nM
- IC50 [7]: 0.01 to 10 nM
- IC50 [8]: 0.01 to 10 nM

SMILES: COc1cc(-n2cnc3cc(-c4cnn(C)c4)ccc32)cc(OC)c1C(=O)N1CC(F)(F)C1 [compound 142, (3,3-difluoroazetidin-1-yl)-[2,6-dimethoxy-4-[5-(1-methylpyrazol-4-yl)benzimidazol-1-yl]phenyl]methanone]
- IC50 [1]: 10 to 100 nM
- IC50 [2]: 10 to 100 nM
- IC50 [3]: 10 to 100 nM
- EC50 [4]: 100 to 1000 nM
- IL-10 FCmax median [5]: ++ (>1.5-4.5)
- IC50 [6]: 10 to 100 nM
- IC50 [7]: 10 to 100 nM
- IC50 [8]: 10 to 100 nM

SMILES: COc1cc(-c2cnc3cc(-c4cn(C)cn4)ccn23)cc(OC)c1C(=O)N[C@H](C)C(F)(F)F [compound 215, 2,6-dimethoxy-4-[7-(1-methylimidazol-4-yl)imidazo[1,2-a]pyridin-3-yl]-N-[(1R)-2,2,2-trifluoro-1-methyl-ethyl]benzamide]
- IC50 [1]: 0.01 to 10 nM
- IC50 [2]: 0.01 to 10 nM
- IC50 [3]: 10 to 100 nM
- EC50 [4]: 100 to 1000 nM
- IL-10 FCmax median [5]: ++ (>1.5-4.5)
- IC50 [6]: 0.01 to 10 nM
- IC50 [7]: 0.01 to 10 nM
- IC50 [8]: 10 to 100 nM

SMILES: COc1cc(-c2cnc3cc(-c4cn[nH]c4)ccn23)cc(OC)c1C(=O)NCC(F)(F)F [compound 227, 2,6-dimethoxy-4-[7-(1H-pyrazol-4-yl)imidazo[1,2-a]pyridin-3-yl]-N-(2,2,2-trifluoroethyl)benzamide]
- IC50 [1]: 0.01 to 10 nM
- IC50 [2]: 0.01 to 10 nM
- IC50 [3]: 0.01 to 10 nM
- EC50 [4]: 0.1 to 100 nM
- IL-10 FCmax median [5]: +++ (>4.5)
- IC50 [6]: 0.01 to 10 nM
- IC50 [7]: 0.01 to 10 nM
- IC50 [8]: 0.01 to 10 nM

SMILES: CCOC(=O)Cn1cc(-c2ccn3c(-c4cc(OC)c(C(=O)NCC(F)(F)F)c(OC)c4)cnc3c2)cn1 [compound 230, ethyl 2-[4-[3-[3,5-dimethoxy-4-(2,2,2-trifluoroethyl-carbamoyl)phenyl]imidazo[1,2-a]pyridin-7-yl]pyrazol-1-yl]acetate]
- IC50 [1]: 0.01 to 10 nM
- IC50 [2]: 0.01 to 10 nM
- IC50 [3]: 0.01 to 10 nM
- EC50 [4]: 0.1 to 100 nM
- IL-10 FCmax median [5]: +++ (>4.5)
- IC50 [6]: 0.01 to 10 nM
- IC50 [7]: 0.01 to 10 nM
- IC50 [8]: 0.01 to 10 nM

SMILES: COc1cc(-c2cnc3cc(-c4cnnc(C)c4)ccn23)cc(OC)c1C(=O)NCC(F)(F)F [compound 252, 2,6-dimethoxy-4-[7-(6-methylpyridazin-4-yl)imidazo[1,2-a]pyridin-3-yl]-N-(2,2,2-trifluoroethyl)benzamide]
- IC50 [1]: 10 to 100 nM
- IC50 [2]: 0.01 to 10 nM
- IC50 [3]: 100 to 500 nM
- EC50 [4]: 100 to 1000 nM
- IC50 [6]: 10 to 100 nM
- IC50 [7]: 0.01 to 10 nM
- IC50 [8]: 100 to 500 nM

SMILES: COc1cc(-c2cnc3cc(-c4cnn(C)c4)ccn23)cc2c1C(=O)N(CC(F)(F)F)C2 [compound 261, 7-methoxy-5-[7-(1-methylpyrazol-4-yl)imidazo[l,2-a]pyridin-3-yl]-2-(2,2,2-trifluoroethyl)isoindolin-1-one]
- IC50 [1]: 0.01 to 10 nM
- IC50 [2]: 0.01 to 10 nM
- IC50 [3]: 0.01 to 10 nM
- EC50 [4]: 0.1 to 100 nM
- IC50 [6]: 0.01 to 10 nM
- IC50 [7]: 0.01 to 10 nM
- IC50 [8]: 10 to 100 nM

SMILES: COc1cc(-c2cnc3cc(-c4cnn(C)c4)ccn23)cc2c1C(=O)N(C1CC1)CC2 [compound 262, 2-cyclopropyl-8-methoxy-6-[7-(1-methylpyrazol-4-yl)imidazo[1,2-a]pyridin-3-yl]-3,4-dihydroisoquinolin-1-one]
- IC50 [1]: 0.01 to 10 nM
- IC50 [2]: 0.01 to 10 nM
- IC50 [3]: 0.01 to 10 nM
- EC50 [4]: 0.1 to 100 nM
- IC50 [6]: 0.01 to 10 nM
- IC50 [7]: 0.01 to 10 nM
- IC50 [8]: 10 to 100 nM

SMILES: CCOC(=O)C(C)n1cc(-c2ccn3c(-c4cc(OC)c(C(=O)NCC(F)(F)F)c(OC)c4)cnc3c2)cn1 (stereo not drawn) [compound 263, ethyl 2-[4-[3-[3,5-dimethoxy-4-(2,2,2-trifluoroethyl-carbamoyl)phenyl]imidazo[1,2-a]pyridin-7-yl]pyrazol-1-yl]propanoate]
- IC50 [1]: 0.01 to 10 nM
- IC50 [2]: 0.01 to 10 nM
- IC50 [3]: 0.01 to 10 nM
- EC50 [4]: 0.1 to 100 nM
- IL-10 FCmax median [5]: ++ (>1.5-4.5)
- IC50 [6]: 0.01 to 10 nM
- IC50 [7]: 0.01 to 10 nM
- IC50 [8]: 0.01 to 10 nM

SMILES: COc1cc(-c2cnc3cc(-c4cnn(C5CN(CC#N)C5)c4)ccn23)cc(OC)c1C(=O)NCC(F)(F)F [compound 265, 4-[7-[1-[1-(cyanomethyl)azetidin-3-yl]pyrazol-4-yl]imidazo[1,2-a]pyridin-3-yl]-2,6-dimethoxy-N-(2,2,2-trifluoroethyl)benzamide]
- IC50 [1]: 0.01 to 10 nM
- IC50 [2]: 0.01 to 10 nM
- IC50 [3]: 0.01 to 10 nM
- EC50 [4]: 0.1 to 100 nM
- IL-10 FCmax median [5]: ++ (>1.5-4.5)

SMILES: COc1cc(-c2cnc3cc(-c4cnnc(C)c4)ccn23)cc(OC(F)F)c1C(=O)NC1CC1 [compound 272, N-cyclopropyl-2-(difluoromethoxy)-6-methoxy-4-[7-(6-methylpyridazin-4-yl)imidazo[1,2-a]pyridin-3-yl]benzamide]
- IC50 [1]: 0.01 to 10 nM
- IC50 [2]: 0.01 to 10 nM
- IC50 [3]: 10 to 100 nM
- EC50 [4]: 100 to 1000 nM
- IL-10 FCmax median [5]: ++ (>1.5-4.5)

SMILES: COc1cc(-c2cnc3cc(-c4cnn(C)c4)ccn23)cc(OCCO)c1C(=O)NC1CC1 [compound 279, N-cyclopropyl-2-(2-hydroxyethoxy)-6-methoxy-4-[7-(1-methylpyrazol-4-yl)imidazo[1,2-a]pyridin-3-yl]benzamide]
- IC50 [1]: 0.01 to 10 nM
- IC50 [2]: 0.01 to 10 nM
- IC50 [3]: 0.01 to 10 nM
- EC50 [4]: 100 to 1000 nM
- IL-10 FCmax median [5]: ++ (>1.5-4.5)

SMILES: COc1ccc(-c2ccn3c(-c4cc(OC)c(C(=O)NC5CC5)c(OC(F)F)c4)cnc3c2)nn1 [compound 280, N-cyclopropyl-2-(difluoromethoxy)-6-methoxy-4-[7-(6-methoxypyridazin-3-yl)imidazo[1,2-a]pyridin-3-yl]benzamide]
- IC50 [1]: 0.01 to 10 nM
- IC50 [2]: 0.01 to 10 nM
- IC50 [3]: 0.01 to 10 nM
- EC50 [4]: 0.1 to 100 nM
- IL-10 FCmax median [5]: ++ (>1.5-4.5)
